In US20240025863A1, “SOS1 PROTEIN DEGRADERS, PHARMACEUTICAL COMPOSITIONS THEREOF, AND THEIR THERAPEUTIC APPLICATIONS” (BioTheryX, Inc., priority 2020, published 2024):

Test system: Molm-13 cells
Test: Inhibition of Molm-13 cells
Format: cell-based
Conditions: Homo sapiens; for inhibition at 1 µM: compound 1 μM, read-out: Inhibition of Molm-13 Cells, percentage of inhibition at 1 μM; for inhibition at 10 µM: compound 10 μM, read-out: Inhibition of Molm-13 Cells, percentage of inhibition at 10 μM

Compound | inhibition at 1 µM | inhibition at 10 µM
COc1cc2c(N[C@H](C)c3cccc(Br)c3)nc(C)nc2cc1OCCCN1CCC(c2cc(F)cc3c2CN(C2CCC(=O)NC2=O)C3=O)CC1 (stereo partly drawn) [Compound A10, 3-(4-(1-(3-((4-(((R)-1-(3-Bromophenyl)ethyl)amino)-6-methoxy-2-methyl-quinazolin-7-yl)oxy)propyl)piperidin-4-yl)-6-fluoro-1-oxoisoindolin-2-yl)piperidine-2,6-dione] | 22% | 99%
COc1cc2c(N[C@H](C)c3cccs3)nc(C)nc2cc1OCCCCCCCCC(=O)N[C@H](C(=O)N1C[C@H](O)C[C@H]1C(=O)NCc1ccc(-c2scnc2C)cc1)C(C)(C)C [Compound D5, (2S,4R)-4-Hydroxy-1-((S)-2-(9-((6-methoxy-2-methyl-4-(((R)-1-(thiophen-2-yl)ethyl)amino)quinazolin-7-yl)oxy)nonanamido)-3,3-dimethylbutanoyl)-N-(4-(4-methylthiazol-5-yl)benzyl)pyrrolidine-2-carboxamide] | 22% | 99%
COc1cc2nc(C)nc(N[C@H](C)c3cccc(Br)c3)c2cc1OC [drawing 287] | 17% | 91%
